Source: the supplement of paper PMC10307832

Columns and labels:
Experiment in all cases: relative viability (nuclei count vs DMSO), 5 days (fraction); higher = more cells survive
[1] = test system: NCI-H1793
Method in brief: (§1)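 Relative viability was taken as the ratio of nuclei in treated wells to nuclei in vehicle wells. Lung cancer cell lines in 1536-well plates received compounds by pin tool one day after seeding, either one drug alone or a fixed anchor-drug dose plus five library-drug doses (not always all listed) in √10 steps. Nuclei were counted on 4× images after 5 days of treatment, and values are medians of duplicate plates.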

[2] = test system: NCI-H2170
Method in brief: as §1

[3] = test system: NCI-H2405
Method in brief: as §1

[4] = test system: NCI-H2023
Method in brief: as §1

[5] = test system: NCI-H647
Method in brief: as §1

[6] = test system: NCI-H1563
Method in brief: as §1

[7] = test system: NCI-H520
Method in brief: as §1

[8] = test system: PC-14
Method in brief: as §1

[9] = test system: NCI-H1734
Method in brief: as §1

[10] = test system: COR-L23
Method in brief: as §1

[11] = test system: NCI-H3122
Method in brief: as §1

[12] = test system: EPLC-272H
Method in brief: as §1

[13] = test system: RERF-LC-KJ
Method in brief: as §1

[14] = test system: ABC-1
Method in brief: as §1

[15] = test system: HCC-44
Method in brief: as §1

[16] = test system: NCI-H1993
Method in brief: as §1

[17] = test system: EKVX
Method in brief: as §1

[18] = test system: LOU-NH91
Method in brief: as §1

[19] = test system: NCI-H2347
Method in brief: as §1

[20] = test system: 201T
Method in brief: as §1

[21] = test system: NCI-H2085
Method in brief: as §1

[22] = test system: NCI-H441
Method in brief: as §1

**Q.** For `CC(C)Oc1cc(Nc2nc(N[C@@H](C)c3ccc(F)cn3)ncc2Cl)n[nH]1` [AZ23] + Cc1nc(NC(=O)N2CCC[C@H]2C(N)=O)sc1-c1ccnc(C(C)(C)C(F)(F)F)c1 [Alpelisib] (partner 2 µM), which relative viability ([1]; first compound 0.01 µM) is on record?
**A.** 0.83

**Q.** What about the relative viability ([1]; first compound 0.03162 µM) of the same molecule?
**A.** 0.787

**Q.** What about the relative viability ([1]; first compound 0.3162 µM) of the same molecule?
**A.** 0.643

**Q.** And the relative viability ([2]; first compound 0.01 µM)?
**A.** 0.87

**Q.** And the relative viability ([2]; first compound 0.03162 µM)?
**A.** 0.887

**Q.** And the relative viability ([2]; first compound 0.3162 µM)?
**A.** 0.831

**Q.** And the relative viability ([3]; first compound 0.01 µM)?
**A.** 0.708

**Q.** What about the relative viability ([3]; first compound 0.03162 µM) of the same molecule?
**A.** 0.768

**Q.** What about the relative viability ([3]; first compound 0.3162 µM) of the same molecule?
**A.** 0.754

**Q.** What about the relative viability ([4]; first compound 0.03162 µM) of the same molecule?
**A.** 0.675

**Q.** And the relative viability ([4]; first compound 0.3162 µM)?
**A.** 0.623

**Q.** And the relative viability ([5]; first compound 0.01 µM)?
**A.** 1.63

**Q.** And the relative viability ([5]; first compound 0.03162 µM)?
**A.** 1.37

**Q.** And the relative viability ([5]; first compound 0.3162 µM)?
**A.** 1.17

**Q.** And the relative viability ([6]; first compound 0.01 µM)?
**A.** 0.895

**Q.** What about the relative viability ([6]; first compound 0.03162 µM) of the same molecule?
**A.** 0.961

**Q.** What about the relative viability ([6]; first compound 0.3162 µM) of the same molecule?
**A.** 0.899

**Q.** What about the relative viability ([7]; first compound 0.01 µM) of the same molecule?
**A.** 1.06

**Q.** What about the relative viability ([7]; first compound 0.03162 µM) of the same molecule?
**A.** 0.988

**Q.** And the relative viability ([7]; first compound 0.3162 µM)?
**A.** 0.752

**Q.** And the relative viability ([8]; first compound 0.01 µM)?
**A.** 0.897

**Q.** What about the relative viability ([8]; first compound 0.03162 µM) of the same molecule?
**A.** 1.13

**Q.** And the relative viability ([8]; first compound 0.3162 µM)?
**A.** 1.06

**Q.** What about the relative viability ([9]; first compound 0.01 µM) of the same molecule?
**A.** 0.683

**Q.** What about the relative viability ([9]; first compound 0.03162 µM) of the same molecule?
**A.** 0.772

**Q.** What about the relative viability ([9]; first compound 0.3162 µM) of the same molecule?
**A.** 0.649

**Q.** And the relative viability ([10]; first compound 0.01 µM)?
**A.** 0.815

**Q.** And the relative viability ([10]; first compound 0.03162 µM)?
**A.** 0.921

**Q.** And the relative viability ([10]; first compound 0.3162 µM)?
**A.** 0.821

**Q.** And the relative viability ([11]; first compound 0.01 µM)?
**A.** 0.811

**Q.** And the relative viability ([11]; first compound 0.03162 µM)?
**A.** 0.827

**Q.** And the relative viability ([11]; first compound 0.3162 µM)?
**A.** 0.77

**Q.** And the relative viability ([12]; first compound 0.01 µM)?
**A.** 0.873

**Q.** And the relative viability ([12]; first compound 0.03162 µM)?
**A.** 1.18

**Q.** And the relative viability ([13]; first compound 0.01 µM)?
**A.** 0.714

**Q.** And the relative viability ([13]; first compound 0.03162 µM)?
**A.** 0.925

**Q.** And the relative viability ([13]; first compound 0.3162 µM)?
**A.** 0.845

**Q.** And the relative viability ([14]; first compound 0.01 µM)?
**A.** 0.717

**Q.** What about the relative viability ([14]; first compound 0.03162 µM) of the same molecule?
**A.** 1.23

**Q.** And the relative viability ([14]; first compound 0.3162 µM)?
**A.** 1.14

**Q.** And the relative viability ([15]; first compound 0.01 µM)?
**A.** 0.858

**Q.** What about the relative viability ([15]; first compound 0.03162 µM) of the same molecule?
**A.** 0.915

**Q.** What about the relative viability ([15]; first compound 0.3162 µM) of the same molecule?
**A.** 0.871

**Q.** What about the relative viability ([16]; first compound 0.01 µM) of the same molecule?
**A.** 0.597

**Q.** And the relative viability ([16]; first compound 0.3162 µM)?
**A.** 0.659

**Q.** And the relative viability ([17]; first compound 0.01 µM)?
**A.** 0.923

**Q.** And the relative viability ([17]; first compound 0.03162 µM)?
**A.** 1.07

**Q.** What about the relative viability ([17]; first compound 0.3162 µM) of the same molecule?
**A.** 0.978

**Q.** And the relative viability ([18]; first compound 0.01 µM)?
**A.** 0.676

**Q.** And the relative viability ([18]; first compound 0.03162 µM)?
**A.** 0.775

**Q.** And the relative viability ([18]; first compound 0.3162 µM)?
**A.** 0.699

**Q.** What about the relative viability ([19]; first compound 0.01 µM) of the same molecule?
**A.** 1.06

**Q.** What about the relative viability ([19]; first compound 0.03162 µM) of the same molecule?
**A.** 1.09

**Q.** And the relative viability ([19]; first compound 0.3162 µM)?
**A.** 1.08

**Q.** What about the relative viability ([20]; first compound 0.01 µM) of the same molecule?
**A.** 1.03

**Q.** And the relative viability ([20]; first compound 0.03162 µM)?
**A.** 1.09

**Q.** What about the relative viability ([20]; first compound 0.3162 µM) of the same molecule?
**A.** 1.02

**Q.** What about the relative viability ([21]; first compound 0.01 µM) of the same molecule?
**A.** 1

**Q.** And the relative viability ([21]; first compound 0.03162 µM)?
**A.** 0.999

**Q.** And the relative viability ([21]; first compound 0.3162 µM)?
**A.** 0.938

**Q.** What about the relative viability ([22]; first compound 0.01 µM) of the same molecule?
**A.** 1.05

**Q.** And the relative viability ([22]; first compound 0.03162 µM)?
**A.** 0.621

**Q.** What about the relative viability ([22]; first compound 0.3162 µM) of the same molecule?
**A.** 0.576
